Test results published in patent US20110182909A1, “Glufosfamide combination therapy” (priority 2004, published 2011).
Read-outs that look alike come from different tables or passages of the source. Blank lines part the entries; values can stand above or below the compound they belong to.

What was measured:
[1] = mesna given concomitantly with ifosfamide; cited from earlier work
[2] = system: Ramos cells (Burkitt's lymphoma); experiment: Alamar Blue cell proliferation assay (3 days); assay type: cell-based; conditions: for IC50: single agent; for Cell proliferation as % control: 3 days
Experimental: Ramos cells lines (Burkitt's lymphoma) were obtained from the American Type Culture Collection (ATCC, Rockville, Md.). All cell lines were cultured in Dulbecco's modified Eagle's medium supplemented with 10% fetal calf serum, sodium pyruvate, nonessential amino acids, L-glutamine, vitamins, and antibiotics. Cells were maintained in a humidified incubator containing 5% CO2, 21% O2, at 37° C. All chemical reagents were purchased from Sigma Chemical Co. (St. Louis, Mo.) unless otherwise specified. Glufosfamide was provided directly by Threshold Pharmaceuticals and reconstituted in PBS freshly for each study.
To determine the effect of the combinations of the present invention on cell proliferation, the antiproliferative activity of these combinations was tested in a multi-well Alamar Blue based assay (at 3 days). Cell growth in the presence and absence of the test compound as tabulated in Table 1 was compared, as measured by a fluorescence plate reader at excitation 550 nm and emission 590 nm (see Biosource International Inc., Tech Application Notes, Use of Alainar Blue in the measurement of Cell Viability and Toxicity, Determining IC50). Ramos cells (Burkitt's lymphoma) (ATCC Catalog #CRL-1596), 3000 cells/well/180 μl) were seeded in a 96 well plate in RPMI medium (Invitrogen Corporation, Carlsbad, Calif.) and incubated overnight. After 24 hours, these plates were divided into Control group and 3 day treatment group.
A test compound (Glufosfamide, Carboplatin, or Etoposide) was added to each plate in the treatment groups at a concentration as tabulated in Tables 1A-1D (in 200 μl of medium, respectively). The cells were incubated for 3 days, followed by staining with AlamarBlue. In the Control group, AlamarBlue was added to the plate at (i) day 0 and (ii) day 3 and measured to establish the control reading. In all the groups, the capacity of the cells to proliferate was measured 17 hours after addition of AlamarBlue using a fluorescence plate reader at excitation 550 nm and emission 590 nm. […] Dose dependent percent inhibition was calculated using Graphpad Prism® (GraphPad Software, Inc.). These values were then applied against the Combination Index (CI) method as described by Chou and Talalay (Chou, T. C. and Talalay, P., Quantitative analysis of dose-effect relationships: The combined effects of multiple drugs or enzyme inhibitors. Adv. Enz. Regul. 22:27-55, 1984) using CalcuSyn software (Biosoft).
The effect of the combinations of the present invention on cell proliferation was determined by comparing cell growth in the presence and absence of the test combinations as tabulated in the tables below according to the procedure described above.

[3] = in contrast to ifosfamide; cited from earlier work

SMILES: O=S(=O)(O)CCS [mesna, mercaptoethane sulfonate sodium]
patients who do not respond to mesna and develop hematuria [1]: up to 6%

IC50 ([2]; Homo sapiens, 72 h, Table 1B, 3 days (from Table 1A), read-out: IC50): < 0.13 µM
IC50 ([2]; Homo sapiens, 72 h, Table 1D, 3 days (from Table 1C), read-out: IC50): 0.076 µM
SMILES: COc1cc([C@@H]2c3cc4c(cc3[C@@H](O[C@@H]3O[C@@H]5CO[C@@H](C)O[C@H]5[C@H](O)[C@H]3O)[C@H]3COC(=O)[C@H]23)OCO4)cc(OC)c1O [Etoposide]
Cell proliferation as % control ([2]; Table 1A, Etoposide 0.13 μM): 37 % control
Cell proliferation as % control ([2]; Table 1A, Etoposide 0.4 μM): 26 % control
Cell proliferation as % control ([2]; Table 1A, Etoposide 3.7 μM): 3 % control
Cell proliferation as % control ([2]; Table 1A, Etoposide 11 μM): 0 % control
Cell proliferation as % control ([2]; Table 1A, Etoposide 33 μM): 0 % control
Cell proliferation as % control ([2]; Table 1A, Etoposide 100 μM): 0 % control
Cell proliferation as % control ([2]; Table 1C, Etoposide 0.004 μM): 97 % control
Cell proliferation as % control ([2]; Table 1C, Etoposide 0.013 μM): 91 % control
Cell proliferation as % control ([2]; Table 1C, Etoposide 0.04 μM): 62 % control
Cell proliferation as % control ([2]; Table 1C, Etoposide 0.37 μM): 35 % control
Cell proliferation as % control ([2]; Table 1C, Etoposide 1.1 μM): 14 % control
Cell proliferation as % control ([2]; Table 1C, Etoposide 3.3 μM): 0 % control
Cell proliferation as % control ([2]; Table 1C, Etoposide 10 μM): 0 % control

SMILES: N.N.O=C([O-])C1(C(=O)[O-])CCC1.[Pt+2] [Carboplatin]
Cell proliferation as % control ([2]; Table 1A, Carboplatin 0.4 μM): 97 % control
Cell proliferation as % control ([2]; Table 1A, Carboplatin 3.7 μM): 94 % control
Cell proliferation as % control ([2]; Table 1A, Carboplatin 11 μM): 68 % control
Cell proliferation as % control ([2]; Table 1A, Carboplatin 33 μM): 46 % control
Cell proliferation as % control ([2]; Table 1A, Carboplatin 100 μM): 0 % control
Cell proliferation as % control ([2]; Table 1A, Carboplatin 300 μM): 0 % control
IC50 ([2]; Table 1B, 3 days (from Table 1A), read-out: IC50): 25 µM
Cell proliferation as % control ([2]; Table 1C, Carboplatin 0.4 μM): 98 % control
Cell proliferation as % control ([2]; Table 1C, Carboplatin 3.7 μM): 89 % control
Cell proliferation as % control ([2]; Table 1C, Carboplatin 11 μM): 74 % control
Cell proliferation as % control ([2]; Table 1C, Carboplatin 33 μM): 45 % control
Cell proliferation as % control ([2]; Table 1C, Carboplatin 100 μM): 0 % control
Cell proliferation as % control ([2]; Table 1C, Carboplatin 300 μM): 0 % control
IC50 ([2]; Table 1D, 3 days (from Table 1C), read-out: IC50): 25 µM

SMILES: O=P(NCCCl)(NCCCl)OC1OC(CO)C(O)C(O)C1O [Glufosfamide, α-D-glucosyl-ifosfamide mustard]
production of chloroacetaldehyde [3]: produces less chloroacetaldehyde
release of the toxic metabolite acrolein [3]: does not release the toxic metabolite acrolein
IC50 ([2]; Homo sapiens, 72 h, Table 1B, 3 days (from Table 1A)): 180 µM
IC50 ([2]; Homo sapiens, 72 h, Table 1D, 3 days (from Table 1C)): 120 µM
Cell proliferation as % control ([2]; Table 1A, Glufosfamide 0.7 μM): 91 % control
Cell proliferation as % control ([2]; Table 1A, Glufosfamide 2 μM): 92 % control
Cell proliferation as % control ([2]; Table 1A, Glufosfamide 6 μM): 94 % control
Cell proliferation as % control ([2]; Table 1A, Glufosfamide 19 μM): 81 % control
Cell proliferation as % control ([2]; Table 1A, Glufosfamide 56 μM): 65 % control
Cell proliferation as % control ([2]; Table 1A, Glufosfamide 167 μM): 65 % control
Cell proliferation as % control ([2]; Table 1A, Glufosfamide 500 μM): 0 % control
Cell proliferation as % control ([2]; Table 1C, Glufosfamide 9 μM): 91 % control
Cell proliferation as % control ([2]; Table 1C, Glufosfamide 19 μM): 79 % control
Cell proliferation as % control ([2]; Table 1C, Glufosfamide 37.5 μM): 70 % control
Cell proliferation as % control ([2]; Table 1C, Glufosfamide 75 μM): 64 % control
Cell proliferation as % control ([2]; Table 1C, Glufosfamide 150 μM): 54 % control
Cell proliferation as % control ([2]; Table 1C, Glufosfamide 300 μM): 11 % control
Cell proliferation as % control ([2]; Table 1C, Glufosfamide 600 μM): 0 % control
